Converted amounts (≈) assume the structure as drawn. Read-outs that look alike come from different tables or passages of the source. Where only a bound is given, the exact number is not on record here.

For series [1], the target named is T1, CMY-178 (Klebsiella pneumoniae, UniProt Q48434, DEL310-312/N366I/N90T).
T1 construct: were amplified without a signal peptide and cloned into the pET28a; His8 (N); made in house; host or cells: E. coli BL21(DE3)
Nature of the series: Ki by direct competition assay with nitrocefin, CMY-178. The class given is biochemical, Escherichia coli. The settings on record: for Ki: CMY-178, competition with 100 μM nitrocefin, 2-min incubation, mean ± SD; for Increase of Ki value of CMY-178 compared with CMY-172: CMY-178 vs CMY-172. On the procedure:
(§1) blaCMYs (including blaCMY-2, blaCMY-172, and blaCMY-178) were amplified without a signal peptide and cloned into the pET28a, which led to the introduction of an N-terminal His8-Tag.The recombinant plasmids were transformed into E. coli BL21(DE3) and selected using Sanger sequencing. Lysogenic broth containing 50 μg/mL kanamycin was inoculated with transformants and grown to reach an OD600 of 0.6. A final concentration of 1 mM isopropyl-β-D-thiogalactopyranoside (IPTG) was added into the resulting culture, which was shaken at 18°C overnight. The culture broth was centrifuged to harvest bacteria. The pellet was resuspended in lysis buffer (50 mM Tris-HCl and 300 mM NaCl (pH 7.5)) and disrupted using a JN-02C French press (JNBIO, Guangzhou, China) at 1,100 bar. Then, the cell debris was removed by centrifugation at 11,000 rpm for 40 min at 4°C. The supernatant was added to an Ni column, and the absorbed protein was eluted by the eluent buffer (lysis buffer with 300 mM imidazole).
(§2) Enzymatic activities were measured using a D8 UV-visible spectrophotometer (Rumqee, Shanghai, China) in phosphate-buffered saline (PBS; pH 7.2) at room temperature. Substrates tested included nitrocefin, ceftazidime, and avibactam. The extinction coefficient and wavelength of nitrocefin are 17,400 M^−1 · cm^−1 and 482 nm, respectively. […] The initial reaction velocities (v) were measured and Ki values were calculated by fitting data into equation 1 with GraphPad Prism v9.0.0 ([37]). (1) v=Vmax[S]/[S]+Km NCF (1+[I]/Ki)

Another series concerns E. coli DH5α-pCR2.1. Kind of series: MIC by agar dilution, DH5α with blank vector pCR2.1. The class given is cell-based. The conditions noted are these: Escherichia coli. Here is the method:
(§3) Antimicrobial susceptibility testing was performed and interpreted according to the Clinical and Laboratory Standards Institute (CLSI) guidelines and breakpoints (M100, 31st edition) by the agar dilution method. E. coli ATCC 25922 and K. pneumoniae ATCC 700603 served as control strains.
(§4) The antibiotics we used included meropenem (Hanhui Pharmaceutical Co., Ltd., China), imipenem (Merck Sharp & Dohme Corp., USA), cefepime (Jiangsu Hengrui Pharmaceutical Co., Ltd., China), piperacillin (Suzhou Erye Pharmaceutical Co., Ltd., China), ceftazidime (Guangdong Jincheng Jinsu Pharmaceutical Co., Ltd., China), tazobactam (Meilunbio, China), avibactam (MedChemExpress, USA), aztreonam (Sigma-Aldrich, USA), amikacin (Meilunbio), cefuroxime (Esseti Farmaceutici S.r.l., Italy), fosfomycin (Harbin Pharmaceutical Group Co., Ltd. China), levofloxacin (Daiichi Sankyo Company Limited, Beijing, China), and cefotaxime (North China Pharmaceutical Hebei Huamin Pharmaceutical Co., Ltd., China).
(§5) The blaCMY cloning was performed using a TA cloning kit (Invitrogen, Shanghai, China). The blaCMY-178 gene combined with its predicted promoter was amplified from isolate AR13438. Then, the blaCMY-178 gene was cloned into the linearized vector pCR2.1 using T4 DNA ligase (Invitrogen). The blaCMY-172 gene was cloned from KPCZA02 with the same method. The resulting plasmids were chemically transformed into E. coli DH5α. The positive transformants were identified by blue-white screening in MH agar containing 50 μg/mL kanamycin and were further confirmed by Sanger sequencing. The pCR2.1 blank vector was also transformed into E. coli DH5α as a control. The primers used for cloning were CMY-F and CMY-R (see Table S2 in the supplemental material). Relative CMY expression was measured by reverse transcription-quantitative PCR as described previously ([34]). Specific quantitative PCR (qPCR) primers (q-recA-F/R and q-CMY-F/R) were designed (Table S2).

In a further series the test system is E. coli J53-KPCZA02. Nature of the series: MIC by agar dilution, conjugant containing pKPCZA02_4. The class given is cell-based. The conditions noted are these: Escherichia coli, J53KPCZA02, E. coli J53-KPCZA02 (blaCMY-172). On the procedure: as §3
(§6) Conjugation experiments were performed by filter mating using sodium-azide-resistant E. coli J53 as the recipient, as described previously. Transconjugants were selected with MH agar containing 100 μg/mL sodium azide and 4 μg/mL ceftazidime-avibactam; furthermore, transconjugants were named J53-AR13438 and J53-KPCZA02, respectively. We compared genomes of AR13438 and J53 to select a unique gene (gtrA) to J53. […] The primers used for PCR were gtrA-F, gtrA-R, CMY-F, and CMY-R (Table S1). The transfer frequencies were calculated as the number of transconjugants (CFU/mL) divided by the number of recipients (CFU/mL). Donors and recipients were mixed at 1:1 for the transfer frequency experiment. S1-PFGE and Southern blotting were performed to define the location of blaCMY-178 and confirm the transmission of the plasmid as described previously ([35]). The MIC profiles of transconjugants were also determined by the agar dilution method.

Series [2] relates to E. coli DH5α-pCR2.1-CMY-172. Kind of series: MIC by agar dilution, transformant containing blaCMY-172. The conditions noted are these: Escherichia coli. The class given is cell-based. Here is the method:
as §3, §4, §5
(In agar dilution, organisms are placed on agar that contains the substance at set levels.)

Series [3] has as its system K. pneumoniae isolate KPCZA02. Kind of series: microbe, parasite or virus in culture. The series is classed as cell-based. The conditions noted are these: Klebsiella pneumoniae. On the procedure: as §3
Series [4] relates to E. coli DH5α-pCR2.1-CMY-178. Nature of the series: MIC by agar dilution, transformant containing blaCMY-178. The series is classed as cell-based, Escherichia coli. Here is the method:
as §3, §4, §5

Series [5] relates to E. coli DH5α-pCR2.1-CMY-2. Nature of the series: MIC by agar dilution, transformant containing blaCMY-2. The class given is cell-based. The conditions noted are these: Escherichia coli.
Series [6] concerns the target T2, CMY-172 (Klebsiella pneumoniae, UniProt Q48434, DEL310-312/N366I).
T2 construct: were amplified without a signal peptide and cloned into the pET28a; His8 (N); made in house; host or cells: E. coli BL21(DE3)
Nature of the series: Ki by direct competition assay with nitrocefin, CMY-172. The series is classed as biochemical. The settings on record: competition with 100 μM nitrocefin, 2-min incubation, mean ± SD. On the procedure: as §1
(§7) Enzymatic activities were measured using a D8 UV-visible spectrophotometer (Rumqee, Shanghai, China) in phosphate-buffered saline (PBS; pH 7.2) at room temperature. Substrates tested included nitrocefin, ceftazidime, and avibactam. […] The initial reaction velocities (v) were measured and Ki values were calculated by fitting data into equation 1 with GraphPad Prism v9.0.0 ([37]). […]

A further series has as its target T3, CMY-2 (Klebsiella pneumoniae, UniProt Q48434).
T3 construct: were amplified without a signal peptide and cloned into the pET28a; His8 (N); made in house; host or cells: E. coli BL21(DE3)
Kind of series: Ki by direct competition assay with nitrocefin, CMY-2. The series is classed as biochemical. On the procedure: as §1, §7

The next series relates to E. coli J53. Kind of series: MIC by agar dilution, recipient E. coli J53. The class given is cell-based. The conditions noted are these: Escherichia coli. Here is the method: as §3, §4
Conjugation experiments were performed by filter mating using sodium-azide-resistant E. coli J53 as the recipient, as described previously. Transconjugants were selected with MH agar containing 100 μg/mL sodium azide and 4 μg/mL ceftazidime-avibactam; furthermore, transconjugants were named J53-AR13438 and J53-KPCZA02, respectively. We compared genomes of AR13438 and J53 to select a unique gene (gtrA) to J53. The blaCMY-178-postive transconjugants were confirmed by PCR and MALDI-TOF MS (see Fig. S9 in the supplemental material). The primers used for PCR were gtrA-F, gtrA-R, CMY-F, and CMY-R (Table S1). The transfer frequencies were calculated as the number of transconjugants (CFU/mL) divided by the number of recipients (CFU/mL). Donors and recipients were mixed at 1:1 for the transfer frequency experiment. S1-PFGE and Southern blotting were performed to define the location of blaCMY-178 and confirm the transmission of the plasmid as described previously ([35]). The MIC profiles of transconjugants were also determined by the agar dilution method.

For the next series, the system named is E. coli J53-AR13438. Kind of series: MIC by agar dilution, conjugant containing pAR13438_2. The series is classed as cell-based. The conditions noted are these: Escherichia coli, J53AR13438, E. coli J53-AR13438 (blaCMY-178). Here is the method: as §3, §6
Another series relates to E. coli strain AR13438. Kind of series: MIC by agar dilution, clinical isolate AR13438. The series is classed as cell-based, Escherichia coli. The settings on record: Escherichia coli; AR13438, clinical E. coli isolate (blaCMY-178, blaTEM-1, blaCTX-M-27); agar dilution. On the procedure:
as §3, §4

A further series deals with E. coli DH5α. Nature of the series: MIC by agar dilution, E. coli DH5α. The settings on record: Escherichia coli. The series is classed as cell-based. Here is the method: as §3, §4
The target of series [7] is T1, CMY-178. Kind of series: Enzyme kinetics (substrate hydrolysis) of purified CMY-178. The series is classed as biochemical, Escherichia coli. On the procedure: as §1, with “imidazole). SDS-PAGE confirmed the protein purity of the eluent (>95%), and the sample was loaded onto a pre-equilibrated Superdex 200 column to eliminate imidazole.” for “imidazole).”
as §2

For series [8], the target named is T2, CMY-172. Kind of series: Enzyme kinetics (substrate hydrolysis) of purified CMY-172. The class given is biochemical. On the procedure:
as §1, with “imidazole). SDS-PAGE confirmed the protein purity of the eluent (>95%), and the sample was loaded onto a pre-equilibrated Superdex 200 column to eliminate imidazole.” for “imidazole).”
as §2

Series [9] relates to O=C(Cc1cccs1)N[C@@H]1C(=O)N2C(C(=O)O)=C(/C=C/c3ccc([N+](=O)[O-])cc3[N+](=O)[O-])CS[C@H]12. Kind of series: Enzyme kinetics (substrate hydrolysis) of purified CMY-2. The conditions noted are these: other: CMY-2, PBS pH 7.2, room temperature, mean ± SD, three experiments. The class given is biochemical. Here is the method:
as §1, with “imidazole). SDS-PAGE confirmed the protein purity of the eluent (>95%), and the sample was loaded onto a pre-equilibrated Superdex 200 column to eliminate imidazole.” for “imidazole).”
as §2

Where [10] appears, read: CMY-178, PBS pH 7.2, room temperature, mean ± SD, three experiments.
The mark [11] stands for this setting: CMY-172, PBS pH 7.2, room temperature, mean ± SD, three experiments.

Regarding `CC(C)(O/N=C(\C(=O)N[C@@H]1C(=O)N2C(C(=O)[O-])=C(C[n+]3ccccc3)CS[C@H]12)c1csc(N)n1)C(=O)O` [CAZ, ceftazidime], the Ki was 9.27 nM on CMY-178 [1]; 1.06 nM at CMY-172 [6]; 32.1 nM at CMY-2 (CMY-2, competition with 100 μM nitrocefin, 2-min incubation, mean ± SD, read-out: Ki). Further, the “Increase of Ki value of CMY-178 compared with CMY-172” value at CMY-178 [1] is recorded as ~ 5 fold. Also, the MIC with E. coli DH5α-pCR2.1 was 0.25 µg/mL (≈ 0.457 µM); in the series with E. coli J53-KPCZA02 it was 512 µg/mL (≈ 937 µM); in [2] it was 512 µg/mL (≈ 937 µM); in series [3], 2050 µg/mL (≈ 3750 µM); in [4] (Escherichia coli, E. coli DH5α-pCR2.1-CMY-178, agar dilution), above 2050 µg/mL; in series [5] it was 256 µg/mL (≈ 468 µM). In addition, the MIC in the series on E. coli J53 was 0.25 µg/mL (≈ 0.457 µM); in the series with E. coli J53-AR13438, 1020 µg/mL (≈ 1870 µM); against E. coli strain AR13438, 2050 µg/mL (≈ 3750 µM); with E. coli DH5α it was 0.25 µg/mL (≈ 0.457 µM). In addition, the “Increase of MIC by blaCMY-178 compared with blaCMY-172” value in series [4] (transformants in E. coli DH5α) is “over 4 fold”.
As to `O=C(Cc1cccs1)N[C@@H]1C(=O)N2C(C(=O)O)=C(/C=C/c3ccc([N+](=O)[O-])cc3[N+](=O)[O-])CS[C@H]12` [NCF, nitrocefin], the Kcat at CMY-178 [7] (setting [10]) turned out to be 55.81 ± 1.04 s⁻¹; at CMY-172 [8] (setting [11]) it was 52.41 ± 2.65 s⁻¹. Besides, the Michaelis-Menten constant (Km) stood at 12.5 ± 0.31 µM on CMY-178 [7] (setting [10]) and 12 ± 0.66 µM at CMY-172 [8] (setting [11]). Moreover, the “Decrease of kcat/Km compared with CMY-2” value at CMY-178 [7] (CMY-178 vs CMY-2) and on CMY-172 [8] (CMY-172 vs CMY-2) was “approximately 3 fold” throughout.
For the compound `C[C@]1(Cn2ccnn2)[C@H](C(=O)O)N2C(=O)C[C@H]2S1(=O)=O` [TAZ, tazobactam], the Ki at CMY-178 [1] is 2490 ± 510 nM; at CMY-172 [6] it was 2120 ± 340 nM; on CMY-2, 760 ± 70 nM. The “Increase of Ki value of CMY-178 compared with CMY-172” value on CMY-178 [1] is recorded as “less than 2 fold”.
Turning to CMY-2 (Klebsiella pneumoniae), in [9], the Km turned out to be 59.88 ± 2.59 µM, the kcat worked out at 732 ± 16.1 s⁻¹ and the kcat/Km turned out to be 1.22e+07 ± 600000 M⁻¹ s⁻¹.

A word on the Ki: it is a dissociation constant, usually derived from enzyme kinetics or from competition with a known ligand. As usually defined, the Km is the substrate concentration at which the rate is half of its maximum. The term kcat denotes the maximal rate divided by the concentration of active sites. Broadly, the kcat/Km is the turnover number divided by the Michaelis constant.

For the origin of these results see paper PMC10100771, “A Novel CMY Variant Confers Transferable High-Level Resistance to Ceftazidime-Avibactam in Multidrug-Resistant Escherichia coli” (Microbiology Spectrum, 2023).
